The results in this text go back to PubChem BioAssay (NCI).

Some test systems named below: UACC-62 melanoma; HL-60(TB) leukemia; SNB-19 CNS; HT29 colon; OVCAR-3 ovarian; UACC-257 melanoma; HOP-92 NSCLC; HCT-15 colon; MDA-N; NCI-H23 lung; LOX IMVI melanoma; NCI-H522 lung; K-562 leukemia; SK-MEL-5 melanoma; HOP-62 NSCLC; PC-3 prostate; SNB-75 CNS; U251 CNS; SF-539 CNS.
Holding throughout (test): DTP human tumour cell line panel, 48 h

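Cultured in 96-well plates, cells were exposed to test compound for 48 hours across five concentrations. TGI is the concentration that stops growth completely.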 Some results are limits rather than exact numbers.

With `C/C(C[n+]1ccccc1)=N\N=C(N)N`, the TGI with UACC-62 melanoma, in the assay on HL-60(TB) leukemia, in the assay on SNB-19 CNS, in the assay with HT29 colon, with OVCAR-3 ovarian and with UACC-257 melanoma was above 100 µM in each case. In addition, the TGI in the assay with HOP-92 NSCLC, in the assay on HCT-15 colon, in the assay on MDA-N, in the assay on NCI-H23 lung, in the assay on LOX IMVI melanoma and in the assay with NCI-H522 lung was above 100 µM each time. Moreover, the TGI in the assay with K-562 leukemia, in the assay with SK-MEL-5 melanoma, with HOP-62 NSCLC, with PC-3 prostate, with SNB-75 CNS and in the assay on U251 CNS was above 100 µM each time.

With `N[C@@H](Cc1ccccc1)C(=O)N1CCC[C@@H]1P(=O)(Oc1ccccc1)Oc1ccccc1`, the total growth inhibition concentration (TGI) in the assay with UACC-62 melanoma, in the assay with HL-60(TB) leukemia, with SNB-19 CNS, in the assay on SF-539 CNS, in the assay on HT29 colon and in the assay on OVCAR-3 ovarian was above 100 µM each time. For the same compound, the TGI with UACC-257 melanoma, in the assay on HOP-92 NSCLC, in the assay with HCT-15 colon, in the assay with MDA-N, with NCI-H23 lung and with LOX IMVI melanoma was above 100 µM in each case. Moreover, the concentration for total growth inhibition (TGI) in the assay with K-562 leukemia, in the assay with SK-MEL-5 melanoma, in the assay on HOP-62 NSCLC, with PC-3 prostate, in the assay with SNB-75 CNS and with U251 CNS was above 100 µM in each case.

As to `S=C1NC2=C(CSC/C2=C\c2cccc(Br)c2)C(c2cccc(Br)c2)N1` (stereo not drawn), the TGI with UACC-62 melanoma, in the assay on HL-60(TB) leukemia, with SNB-19 CNS, in the assay with SF-539 CNS, in the assay on HT29 colon and in the assay with OVCAR-3 ovarian was above 100 µM each time. Further, the concentration for total growth inhibition (TGI) in the assay on UACC-257 melanoma, with HCT-15 colon, in the assay with MDA-N, with NCI-H23 lung, in the assay on LOX IMVI melanoma and in the assay with NCI-H522 lung was above 100 µM throughout. Besides, the concentration for total growth inhibition (TGI) with K-562 leukemia, in the assay on SK-MEL-5 melanoma, with HOP-62 NSCLC, in the assay with PC-3 prostate, in the assay on SNB-75 CNS and in the assay with U251 CNS was above 100 µM in each case.

Take `CCCNc1ncnc2c1ncn2C`: the TGI in the assay on UACC-62 melanoma is above 100 µM; in the assay with HL-60(TB) leukemia, 96.3 µM; in the assay with SNB-19 CNS it was above 100 µM; in the assay with SF-539 CNS, above 100 µM; in the assay on OVCAR-3 ovarian, above 100 µM; in the assay with UACC-257 melanoma it was above 100 µM. In addition, the TGI in the assay with HOP-92 NSCLC, with HCT-15 colon, in the assay with MDA-N, in the assay with NCI-H23 lung, in the assay with LOX IMVI melanoma and in the assay with NCI-H522 lung was above 100 µM in each case. The TGI in the assay on K-562 leukemia, with SK-MEL-5 melanoma, in the assay on HOP-62 NSCLC, with PC-3 prostate, in the assay with SNB-75 CNS and in the assay on U251 CNS was above 100 µM in each case.

As for `O=[N+]([O-])C(=C(Nc1ccccc1)Nc1ccccc1)C(Cl)=C(Cl)Cl`, the total growth inhibition concentration (TGI) was 32.2 µM with UACC-62 melanoma; 27.7 µM in the assay with HL-60(TB) leukemia; 32.9 µM in the assay on SNB-19 CNS; 35.4 µM in the assay with SF-539 CNS; 34.6 µM in the assay with HT29 colon; 33.5 µM in the assay on OVCAR-3 ovarian. In addition, the concentration for total growth inhibition (TGI) was 30.7 µM in the assay on UACC-257 melanoma; 33.9 µM with HOP-92 NSCLC; 32.3 µM in the assay with HCT-15 colon; 27.2 µM in the assay on MDA-N; 30 µM in the assay on NCI-H23 lung; 25.1 µM with LOX IMVI melanoma. The total growth inhibition concentration (TGI) with NCI-H522 lung came out at 39.6 µM; in the assay with K-562 leukemia, 33.4 µM; with SK-MEL-5 melanoma it was 29.2 µM; in the assay with HOP-62 NSCLC it was 44.7 µM; with PC-3 prostate it was 29.6 µM; in the assay with SNB-75 CNS, 36.5 µM. The TGI in the assay with U251 CNS worked out at 35.3 µM.

For the compound `CCOS(C)(=O)=O`, the TGI with UACC-62 melanoma, in the assay on HL-60(TB) leukemia, in the assay with SNB-19 CNS, in the assay on SF-539 CNS, in the assay on HT29 colon and in the assay on OVCAR-3 ovarian was above 100 µM throughout. Moreover, the concentration for total growth inhibition (TGI) in the assay with UACC-257 melanoma was above 100 µM; in the assay with HOP-92 NSCLC it was 30.7 µM; in the assay on HCT-15 colon, above 100 µM; in the assay with MDA-N, above 100 µM; with NCI-H23 lung, above 100 µM; in the assay on LOX IMVI melanoma, above 100 µM. Moreover, the TGI in the assay with NCI-H522 lung, in the assay on K-562 leukemia, in the assay with SK-MEL-5 melanoma, in the assay with PC-3 prostate and with U251 CNS was above 100 µM each time.

On to `CC(=NNC(=S)Nc1ccccc1)c1cccc(C(C)=NNC(=S)Nc2ccccc2)n1`, for which the TGI in the assay on UACC-62 melanoma was 26.7 µM; with HL-60(TB) leukemia it was above 20.6 µM; with SNB-19 CNS it was above 100 µM; with SF-539 CNS, 12.5 µM; in the assay on HT29 colon it was above 100 µM; in the assay with OVCAR-3 ovarian, above 28.5 µM. Further, the TGI in the assay on UACC-257 melanoma is above 100 µM; in the assay on HOP-92 NSCLC, above 50.2 µM; in the assay on HCT-15 colon it was above 100 µM; in the assay on MDA-N, above 100 µM; with NCI-H23 lung, above 100 µM; with LOX IMVI melanoma it was above 100 µM. The total growth inhibition concentration (TGI) in the assay on NCI-H522 lung is above 100 µM; in the assay with K-562 leukemia it was above 53.5 µM; in the assay on SK-MEL-5 melanoma it was above 40.1 µM; with HOP-62 NSCLC, above 100 µM; in the assay on PC-3 prostate, above 100 µM; in the assay on SNB-75 CNS, above 100 µM. In the assay with U251 CNS, this compound showed a TGI above 100 µM.

In the case of `CCNC(=S)NNC(=O)C12CC3CC(CC(C3)C1)C2`, the TGI in the assay with UACC-62 melanoma, in the assay with HL-60(TB) leukemia, in the assay on SNB-19 CNS, in the assay on SF-539 CNS, in the assay on HT29 colon and in the assay with OVCAR-3 ovarian was above 100 µM in each case. Also, the TGI in the assay on UACC-257 melanoma, in the assay with HCT-15 colon, with MDA-N, with NCI-H23 lung, in the assay on LOX IMVI melanoma and in the assay on NCI-H522 lung was above 100 µM throughout. The TGI in the assay with K-562 leukemia, with SK-MEL-5 melanoma, in the assay on HOP-62 NSCLC, with PC-3 prostate, with SNB-75 CNS and in the assay with U251 CNS was above 100 µM in each case.

With `O=C(O)[C@H]1CCCN1CP(=O)(O)CN1CCC[C@@H]1C(=O)O`, the concentration for total growth inhibition (TGI) in the assay with UACC-62 melanoma, with HL-60(TB) leukemia, in the assay with SNB-19 CNS, with HT29 colon, in the assay on OVCAR-3 ovarian and in the assay with UACC-257 melanoma was above 100 µM throughout. Further, the TGI with HOP-92 NSCLC, with HCT-15 colon, with MDA-N, in the assay on NCI-H23 lung, in the assay on LOX IMVI melanoma and in the assay with NCI-H522 lung was above 100 µM in each case. For the same compound, the TGI in the assay with K-562 leukemia, in the assay on SK-MEL-5 melanoma, in the assay on HOP-62 NSCLC, in the assay on PC-3 prostate, in the assay with SNB-75 CNS and in the assay on U251 CNS was above 100 µM throughout.

For `COc1ccc(C2OC(c3ccncc3)=NN2C)cc1F` (stereo not drawn), the total growth inhibition concentration (TGI) in the assay with UACC-62 melanoma, with HL-60(TB) leukemia, in the assay on SNB-19 CNS, with SF-539 CNS, in the assay on HT29 colon and in the assay with OVCAR-3 ovarian was above 100 µM in each case. For the same compound, the TGI in the assay with UACC-257 melanoma, in the assay on HOP-92 NSCLC, with HCT-15 colon, in the assay with MDA-N, in the assay on NCI-H23 lung and in the assay with LOX IMVI melanoma was above 100 µM throughout. In addition, the TGI with NCI-H522 lung, in the assay on K-562 leukemia, with SK-MEL-5 melanoma, with HOP-62 NSCLC, in the assay with PC-3 prostate and with U251 CNS was above 100 µM each time.

For `CSc1cc(-c2cccs2)sc1-c1cc(SC)c(-c2sc(-c3sc(-c4cccs4)cc3SC)cc2SC)s1`, the TGI with UACC-62 melanoma, in the assay with HL-60(TB) leukemia, in the assay on SNB-19 CNS, with SF-539 CNS, with HT29 colon and in the assay on OVCAR-3 ovarian was above 100 µM in each case. For the same compound, the TGI in the assay on UACC-257 melanoma, in the assay on HOP-92 NSCLC, in the assay on HCT-15 colon, in the assay on MDA-N, in the assay with NCI-H23 lung and in the assay on LOX IMVI melanoma was above 100 µM throughout. Moreover, the TGI in the assay with NCI-H522 lung, in the assay on K-562 leukemia, in the assay with SK-MEL-5 melanoma, with HOP-62 NSCLC, in the assay with PC-3 prostate and in the assay on U251 CNS was above 100 µM in each case.

As to `COc1ccc(-c2nc(SCC(=O)NNC(=S)Nc3ccccc3)[nH]c2-c2ccc(OC)cc2)cc1`, the concentration for total growth inhibition (TGI) is 30.6 µM in the assay with UACC-62 melanoma; 29.9 µM in the assay with HL-60(TB) leukemia; 43.2 µM in the assay with SNB-19 CNS; 30.9 µM with SF-539 CNS; above 100 µM in the assay with HT29 colon; 34.5 µM in the assay with OVCAR-3 ovarian. The TGI with UACC-257 melanoma came to 44.1 µM; with HOP-92 NSCLC, 44.9 µM; in the assay on HCT-15 colon, 52 µM; in the assay on MDA-N, 50.3 µM; with NCI-H23 lung, 39.3 µM; in the assay on LOX IMVI melanoma, 37.9 µM. Further, the TGI with NCI-H522 lung was 42.4 µM; with K-562 leukemia, above 100 µM; in the assay on SK-MEL-5 melanoma it was 28.4 µM; with HOP-62 NSCLC, 46.1 µM; in the assay with PC-3 prostate, 73.7 µM; in the assay on SNB-75 CNS it was above 100 µM. Besides, the concentration for total growth inhibition (TGI) in the assay with U251 CNS was determined as 32 µM.
